Where two headings read alike, the source gives them in different places.

The values that follow come from US20240139326A1, “METHACRYLAMIDES PROTEIN BINDERS AND USES THEREOF” (YEDA RESEARCH AND DEVELOPMENT CO. LTD., priority 2020, published 2024).

One data set can be described thus: physchem. The conditions noted are these: 5 mM GSH in potassium phosphate buffer, pH 8.
The next data set concerns Mino cells. The data set can be described thus: In-gel fluorescence proteomic reactivity of alkyne probes. Type of data set: cell-based. As to conditions: Mino cells treated 2 h, clicked with TAMRA-azide. The procedure: The samples were incubated at 25 degrees for 2 hours.
Mino cells were treated for two hours with either DMSO, IA-alkyne, or 2a-c. The cells were lysed, labeled the alkynes via copper-catalyzed “click chemistry” with TAMRA (Tetramethylrhodamine)-azide, and imaged the adducts via in-gel fluorescence (FIG. 8B). […] This may be the result of cellular esterases that hydrolyze the ester, leaving an unreactive substituted acrylamide^26. All of the acrylamides were markedly less reactive than IA-alkyne.

Data set [1] concerns the target T1, BTK kinase domain (Homo sapiens (Human), UniProt Q06187).
Protocol: (§2) The reaction mixtures, at room temperature for various times, were injected into the LC/MS. For data analysis, the raw spectra were deconvoluted using a 20000:40000 Da window and 1 Da resolution. The signal from masses 20000:30000 and 33000:40000 (which contained no peaks) was averaged and subtracted from the whole signal.
Another data set deals with wild-type BTK (Homo sapiens (Human), UniProt Q06187). The data set can be described thus: In vitro kinase activity assay for BTK (Nanosyn). Type of data set: biochemical.
Sequence of wild-type BTK (Q06187 whole entry, the tested form may be a part): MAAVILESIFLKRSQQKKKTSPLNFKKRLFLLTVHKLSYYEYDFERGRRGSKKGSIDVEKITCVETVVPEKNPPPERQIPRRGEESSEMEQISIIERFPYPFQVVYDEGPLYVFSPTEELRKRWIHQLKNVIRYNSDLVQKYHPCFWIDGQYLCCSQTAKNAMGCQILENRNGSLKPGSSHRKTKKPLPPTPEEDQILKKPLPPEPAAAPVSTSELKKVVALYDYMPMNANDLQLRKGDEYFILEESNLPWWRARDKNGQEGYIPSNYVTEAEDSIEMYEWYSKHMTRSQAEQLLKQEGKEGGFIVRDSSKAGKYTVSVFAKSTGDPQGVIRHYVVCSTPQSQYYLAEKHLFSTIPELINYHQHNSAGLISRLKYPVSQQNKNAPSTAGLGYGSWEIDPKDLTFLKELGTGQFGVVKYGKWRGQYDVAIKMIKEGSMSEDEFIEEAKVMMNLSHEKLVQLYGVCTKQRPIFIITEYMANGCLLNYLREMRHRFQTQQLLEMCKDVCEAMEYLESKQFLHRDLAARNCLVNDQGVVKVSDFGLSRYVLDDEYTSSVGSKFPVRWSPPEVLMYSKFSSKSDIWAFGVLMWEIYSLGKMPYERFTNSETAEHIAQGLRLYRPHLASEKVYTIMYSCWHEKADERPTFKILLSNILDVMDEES
In data set [2] the target is T1, BTK kinase domain. The data set can be described thus: Kinetic labeling experiments of Ibrutinib derivatives with BTK (intact protein LC/MS). The conditions noted are these: for BTK Substitution/Addition: mechanism of BTK labeling; for labeling of BTK through the substitution mechanism: within 30 minutes.
Protocol: as §2
For data set [3], the target named is T2, BTK (Homo sapiens (Human), UniProt Q06187). Description: Fluorescence intensity measurement of CoLDR turn-on probe with BTK. The class given is binding. The conditions noted are these: 2 μM probe, 2 μM BTK. How it is done: (§1) Each condition was in triplicates in 20 mM Tris pH 8 50 mM NaCl for BTK and K-RAS^G12c, in 50 mM Tris pH 8.0, 100 mM NaCl for EGFR. fluorescent measurements were taken every 2 minutes for 2 hours for BTK and EGFR and every 10 minutes for 15 hours for K-RAS^G12c. […] K-Ras^G12C was expressed and purified as previously described^66, EGFR kinase domain was a generous gift from Prof. Michael Eck.
T2 sequence (Q06187 2-659 limits assumed): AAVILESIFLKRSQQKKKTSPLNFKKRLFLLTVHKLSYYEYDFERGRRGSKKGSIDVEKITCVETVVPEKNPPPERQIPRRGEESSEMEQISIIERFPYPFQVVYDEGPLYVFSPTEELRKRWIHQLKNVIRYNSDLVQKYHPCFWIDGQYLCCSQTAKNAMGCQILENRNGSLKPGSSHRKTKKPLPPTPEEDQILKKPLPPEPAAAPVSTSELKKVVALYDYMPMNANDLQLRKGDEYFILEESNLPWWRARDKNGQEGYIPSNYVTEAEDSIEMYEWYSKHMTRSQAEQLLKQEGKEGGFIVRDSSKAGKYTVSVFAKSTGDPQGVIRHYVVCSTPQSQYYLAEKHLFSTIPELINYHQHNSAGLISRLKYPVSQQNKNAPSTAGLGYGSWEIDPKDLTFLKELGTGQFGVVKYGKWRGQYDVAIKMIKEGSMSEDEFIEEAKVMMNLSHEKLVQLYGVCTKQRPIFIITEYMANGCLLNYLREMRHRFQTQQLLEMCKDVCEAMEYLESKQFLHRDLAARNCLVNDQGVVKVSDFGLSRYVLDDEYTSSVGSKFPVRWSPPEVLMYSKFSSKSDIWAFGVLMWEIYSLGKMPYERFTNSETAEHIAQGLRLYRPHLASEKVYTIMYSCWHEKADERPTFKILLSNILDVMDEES
The fact that a specific leaving group is released as a function of selective binding of a target protein can be used to functionalize irreversible inhibitors, for example as turn-on fluorescent probes. To assess the applicability and generality of this approach three therapeutic targets were chosen for which acrylamide inhibitors are available: BTK, EGFR, and K-RAS^G12C as model systems. […] The rate of the reaction was […] by using 20:1 equivalents of protein:probe (FIG. 12). […] The release can also be inhibited by pre-incubation of BTK with Iodoacetamide alkyne (IAA; FIG. 13B).

The next data set has as its target BSA (Bos taurus (Bovine), UniProt P02769). Description: Turn-on fluorescence selectivity control with BSA. The class given is binding. The conditions noted are these: 10 μM BSA with 2 μM 3j.
In data set [4] the target is T2, BTK. The data set can be described thus: Turn-on chemiluminescence of probe 3k with BTK. Type of data set: binding. How it is done:
Plate reader measurements were performed on Tecan Spark Control 10M fluorescent measurements using black 384 well plates with clear bottom.
Recently, adamantylidene-dioxetane based chemiluminescent turn-on probes for the sensing and imaging of enzymes, reactive oxygen species, and other analytes were reported^28-32 These probes, upon activation by analytes, release a phenolate-dioxetane intermediate which subsequently decomposes with the emission of a photon in the visible spectrum (FIG. 3). […] The chemiluminescence light emission profile of probe 3k (FIG. 15A, Example 1) upon activation with BTK (2 μM) was measured in the absence and presence of BTK (FIG. 15B). The kinetic profile in the presence of BTK was typical of a chemiluminescent probe with an initial signal was increased to a maximum within 20 minutes, followed by a slow decrease.

In data set [5] the target is T3, EGFR (Homo sapiens (Human), UniProt P00533). Description: Fluorescence intensity measurement of CoLDR turn-on probe with EGFR. Type of data set: binding. As to conditions: 2 μM each. How it is done:
as §1
Similarly, 4b (FIG. 11B, Example 1; afatinib derivative functionalized with coumarin) and 5a (FIG. 11C, Example 1; AMG-510 derivative functionalized with coumarin) were treated with EGFR and K-RAS^G12c respectively and measured the released coumarin fluorescence (FIG. 11E, 11F).

In data set [6] the target is T3, EGFR. Description: EGFR kinase activity assay. The class given is biochemical. The conditions noted are these: read-out: IC50 against EGFR.
Data set [7] deals with T1, BTK kinase domain. Description: Labeling experiments of Ibrutinib derivatives with BTK (ligand release, LC/MS). Type of data set: binding. As to conditions: BTK 2 μM, 10 min, 25° C., pH 8.
Protocol: Binding experiments were performed in Tris 20 mM pH 8.0, 50 mM NaCl at room temperature. […] The reaction mixtures, at room temperature for various times, were injected into the LC/MS. For data analysis, the raw spectra were deconvoluted using a 20000:40000 Da window and 1 Da resolution. The labeling percentage for a compound was determined as the labeling of a specific compound (alone or together with other compounds) divided by the overall detected protein species.
To assess irreversible labeling and validate the proposed ligand release mechanism, the probes/compounds (2 μM) were incubated with recombinant BTK (2 μM) and monitored the reaction via intact protein liquid chromatography/mass spectrometry (LC/MS).
Data set [8] addresses SARS-CoV-2 papain like protease (PL^pro) (Severe acute respiratory syndrome coronavirus 2 (2019-nCoV) (SARS-CoV-2), UniProt P0DTD1). Description: Labeling of PLpro (LC/MS). Type of data set: binding. The conditions noted are these: 2 μM protein, 16h, pH 8.
For data set [9], the target named is T2, BTK. The data set can be described thus: Fluorescence intensity measurements of labeling probes with BTK. The conditions noted are these: 4 μM competitor.

T1 sequence (Q06187 402-655): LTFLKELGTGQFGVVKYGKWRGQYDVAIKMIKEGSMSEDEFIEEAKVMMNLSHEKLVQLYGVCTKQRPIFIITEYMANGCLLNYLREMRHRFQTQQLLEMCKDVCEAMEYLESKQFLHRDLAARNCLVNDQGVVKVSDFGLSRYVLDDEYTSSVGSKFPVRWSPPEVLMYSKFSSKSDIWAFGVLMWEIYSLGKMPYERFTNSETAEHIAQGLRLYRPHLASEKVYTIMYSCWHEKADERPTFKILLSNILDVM
T3 sequence (P00533 25-1210 limits assumed): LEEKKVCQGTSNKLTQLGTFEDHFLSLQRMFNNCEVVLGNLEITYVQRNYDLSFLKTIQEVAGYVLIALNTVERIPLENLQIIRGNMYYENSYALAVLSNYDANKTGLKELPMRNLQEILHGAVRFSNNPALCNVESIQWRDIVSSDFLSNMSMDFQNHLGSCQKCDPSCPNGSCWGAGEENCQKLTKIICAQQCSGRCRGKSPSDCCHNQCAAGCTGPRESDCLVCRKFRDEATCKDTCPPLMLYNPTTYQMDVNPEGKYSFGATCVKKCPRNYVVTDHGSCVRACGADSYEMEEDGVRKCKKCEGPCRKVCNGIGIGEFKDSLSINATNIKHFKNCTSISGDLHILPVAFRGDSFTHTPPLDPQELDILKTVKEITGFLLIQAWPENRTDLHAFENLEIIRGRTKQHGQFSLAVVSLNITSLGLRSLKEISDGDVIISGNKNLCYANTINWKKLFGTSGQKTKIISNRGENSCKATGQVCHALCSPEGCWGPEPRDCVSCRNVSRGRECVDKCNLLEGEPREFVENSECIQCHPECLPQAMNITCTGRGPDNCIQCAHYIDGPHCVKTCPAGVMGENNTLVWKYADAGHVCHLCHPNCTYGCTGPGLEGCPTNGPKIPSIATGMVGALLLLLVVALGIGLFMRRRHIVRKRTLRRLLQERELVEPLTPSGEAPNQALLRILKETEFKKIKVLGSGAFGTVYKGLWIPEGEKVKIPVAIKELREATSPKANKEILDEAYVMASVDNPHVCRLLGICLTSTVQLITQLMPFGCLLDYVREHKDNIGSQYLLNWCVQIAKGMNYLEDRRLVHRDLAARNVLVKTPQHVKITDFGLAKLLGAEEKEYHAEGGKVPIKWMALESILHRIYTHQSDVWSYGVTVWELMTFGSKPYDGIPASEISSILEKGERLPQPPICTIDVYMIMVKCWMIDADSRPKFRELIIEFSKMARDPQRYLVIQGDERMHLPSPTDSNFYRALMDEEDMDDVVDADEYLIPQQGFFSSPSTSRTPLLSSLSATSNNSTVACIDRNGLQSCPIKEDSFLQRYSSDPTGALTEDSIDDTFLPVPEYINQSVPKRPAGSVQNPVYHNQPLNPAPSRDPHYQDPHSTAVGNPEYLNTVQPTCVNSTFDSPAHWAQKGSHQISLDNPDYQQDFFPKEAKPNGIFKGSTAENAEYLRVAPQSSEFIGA
Sequence of BSA (P02769 25-607 limits assumed): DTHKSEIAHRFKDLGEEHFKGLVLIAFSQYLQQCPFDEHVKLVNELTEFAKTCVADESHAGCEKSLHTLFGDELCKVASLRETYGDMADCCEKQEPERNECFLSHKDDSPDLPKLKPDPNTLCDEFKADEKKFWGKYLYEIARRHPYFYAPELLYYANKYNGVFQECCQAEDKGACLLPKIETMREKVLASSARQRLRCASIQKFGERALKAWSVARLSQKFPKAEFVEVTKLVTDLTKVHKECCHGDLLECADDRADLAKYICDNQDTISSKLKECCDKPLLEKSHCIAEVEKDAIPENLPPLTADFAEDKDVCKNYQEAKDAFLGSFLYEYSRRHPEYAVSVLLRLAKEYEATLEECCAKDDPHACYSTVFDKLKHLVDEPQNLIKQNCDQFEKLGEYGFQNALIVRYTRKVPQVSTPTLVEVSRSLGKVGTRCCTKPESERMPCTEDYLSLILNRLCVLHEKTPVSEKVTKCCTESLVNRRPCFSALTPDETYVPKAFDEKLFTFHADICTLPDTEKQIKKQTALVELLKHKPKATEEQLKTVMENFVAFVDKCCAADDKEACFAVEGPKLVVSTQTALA
Protocol for wild-type BTK: The reaction was initiated by 2-fold dilution into a solution containing 5 μM ATP and substrate.

Broadly, the half-life is the time needed for the level to fall by half in the phase considered. A higher half-life goes with slow loss. As to `C=C(COC(=O)Oc1ccc([N+](=O)[O-])cc1)C(=O)NCc1ccccc1` [Compound 1j, 2-(benzylcarbamoyl)allyl (4-nitrophenyl) carbonate], the half-life at 100 μM in “physchem” was 54 min.
With `C#CCCNC(=O)C(=C)COc1ccc2ccc(=O)oc2c1` [Compound 2a, N-(but-3-yn-1-yl)-2-(((2-oxo-2H-chromen-7-yl)oxy)methyl)acrylamide], the “proteomic reactivity (in-gel fluorescence)” value with Mino cells is reported as “slightly higher reactivity than 2b”.
`C#CCCNC(=O)C(=C)COC(=O)c1ccccc1` [Compound 2c, 2-(but-3-yn-1-ylcarbamoyl)allyl benzoate]: the “proteomic reactivity (in-gel fluorescence)” value in the data set on Mino cells was “completely inactive”.
Regarding `C=C(C)C(=O)N1CCC[C@@H](n2nc(-c3ccc(Oc4ccccc4)cc3)c3c(N)ncnc32)C1` [Compound 3a, (R)-1-(3-(4-amino-3-(4-phenoxyphenyl)-1H-pyrazolo[3,4-d]pyrimidin-1-yl)piperidin-1-yl)-2-methylprop-2-en-1-one], the “BHK t1/2” value on BTK kinase domain [1] is over 420 min.
A word on the IC50: it is the concentration that gives 50% inhibition. As to `C=C(CN1CCCCC1)C(=O)N1CCC[C@@H](n2nc(-c3ccc(Oc4ccccc4)cc3)c3c(N)ncnc32)C1` [Compound 3c, (R)-1-(3-(4-amino-3-(4-phenoxyphenyl)-1H-pyrazolo[3,4-d]pyrimidin-1-yl)piperidin-1-yl)-2-(piperidin-1-ylmethyl)prop-2-en-1-one], the IC50 against wild-type BTK (0.6 nM BTK, 5 μM ATP) was 0.0001 µM; against wild-type BTK (unit μM), under 100 µM. Besides, the “BTK Substitution/Addition” value at BTK kinase domain [2] was “exclusively through addition”.
`C=C(CN(C)c1ccccc1)C(=O)N1CCC[C@@H](n2nc(-c3ccc(Oc4ccccc4)cc3)c3c(N)ncnc32)C1` [Compound 3d, (R)-1-(3-(4-amino-3-(4-phenoxyphenyl)-1H-pyrazolo[3,4-d]pyrimidin-1-yl)piperidin-1-yl)-2-((methyl(phenyl)amino)methyl)prop-2-en-1-one] gave an IC50 against wild-type BTK (0.6 nM BTK, 5 μM ATP) of 0.0056 µM. The “BHK t1/2” value on BTK kinase domain [2] (BTK labeling, 2 μM compound and 2 μM BTK at room temperature) was 47 min. At BTK kinase domain [2], the “BTK Substitution/Addition” value is reported as “Substitution” and the “labeling of BTK through the substitution mechanism” value is 100%.
On to `C=C(CNCc1ccccc1)C(=O)N1CCC[C@@H](n2nc(-c3ccc(Oc4ccccc4)cc3)c3c(N)ncnc32)C1` [Compound 3e, (R)-1-(3-(4-amino-3-(4-phenoxyphenyl)-1H-pyrazolo[3,4-d]pyrimidin-1-yl)piperidin-1-yl)-2-((benzylamino)methyl)prop-2-en-1-one], for which the half-inhibitory concentration (IC50) on wild-type BTK (0.6 nM BTK, 5 μM ATP) is 0.0001 µM; at wild-type BTK (unit μM), under 100 µM. Also, at BTK kinase domain [1] (recombinant enzyme), the “BHK t1/2” value was under 5 min. For the same compound, the “BTK Substitution/Addition” value at BTK kinase domain [2] is “exclusively through addition”. Further, the “BTK labeling t1/2 faster than Ibrutinib” value at BTK kinase domain [2] (relative to Ibrutinib) came to 50%.
On wild-type BTK (0.6 nM BTK, 5 μM ATP), `C=C(COC(C)=O)C(=O)N1CCC[C@@H](n2nc(-c3ccc(Oc4ccccc4)cc3)c3c(N)ncnc32)C1` [Compound 3g, (R)-2-(3-(4-amino-3-(4-phenoxyphenyl)-1H-pyrazolo[3,4-d]pyrimidin-1-yl)piperidine-1-carbonyl)allyl acetate] yielded an IC50 of 0.0001 µM. The IC50 against wild-type BTK (unit μM) is under 100 µM. Further, at BTK kinase domain [2], the “BTK Substitution/Addition” value was “Substitution” and the “labeling of BTK through the substitution mechanism” value turned out to be 100%.
In the case of `C=C(COc1ccc2ccc(=O)oc2c1)C(=O)N1CCC[C@@H](n2nc(-c3ccc(Oc4ccccc4)cc3)c3c(N)ncnc32)C1` [Compound 3j, (R)-7-((2-(3-(4-amino-3-(4-phenoxyphenyl)-1H-pyrazolo[3,4-d]pyrimidin-1-yl)piperidine-1-carbonyl)allyl)oxy)-2H-chromen-2-one], at BTK [3], the “increase of fluorescence intensity at 435 nm upon addition of BTK” value was 30 fold and the “time to fluorescence saturation” value is at most 10 min. In addition, the “fluorescence on incubation with BSA” value on BSA is recorded as “did not result in increased fluorescence”. At BTK kinase domain [2], the “labeling of BTK through the substitution mechanism” value was determined as 100%.
Consider `C=C(COc1c(Cl)cc(C2(OC)OOC23[C@H]2C[C@@H]4C[C@@H](C[C@H]3C4)C2)cc1/C=C/C(=O)OC)C(=O)N1CCC[C@@H](n2nc(-c3ccc(Oc4ccccc4)cc3)c3c(N)ncnc32)C1` (stereo partly drawn) [Compound 3k, Methyl (E)-3-(2-((2-((R)-3-(4-amino-3-(4-phenoxyphenyl)-1H-pyrazolo[3,4-d]pyrimidin-1-yl)piperidine-1-carbonyl)allyl)oxy)-3-chloro-5-((1r,3r,5R,7R)-4′-methoxyspiro[adamantane-2,3′-[1,2]dioxetan]-4′-yl)phenyl)acrylate], for which the “time to maximum chemiluminescence signal” value on BTK [4] (BTK 2 μM) was at most 20 min.
Consider `C=C(COc1ccc2ccc(=O)oc2c1)C(=O)Nc1cc2c(Nc3ccc(F)c(Cl)c3)ncnc2cc1OC` [Compound 4b, N-(4-((3-chloro-4-fluorophenyl)amino)-7-methoxyquinazolin-6-yl)-2-(((2-oxo-2H-chromen-7-yl)oxy)methyl)acrylamide], for which the “released coumarin fluorescence with EGFR” value at EGFR [5] is on record as “significant increase in fluorescence intensity”. For the same compound, the concentration for half-maximal inhibition (IC50) on EGFR [6] came out at 3.3 nM.
As to `C#CCCNC(=O)C(=C)CN1CCC(CNc2ncnc(N)c2-c2ccc(Oc3ccccc3)cc2)CC1` [Compound 7g], the “single labeling of BTK” value on BTK kinase domain [7] is 100%.
Take `C=C(COC(=O)c1cc(OC)c(OC)c(OC)c1)C(=O)OCC` [Compound 7t]: the “single labeling of PL^pro” value in data set [8] was determined as 100%.
As for `Nc1ncnc2c1c(-c1ccc(Oc3ccccc3)cc1)nn2[C@@H]1CCCNC1` [Ibr-H, reference compound], at BTK [4] (2 μM, 0.5 h pre-incubation), the “3k luminescence after pre-incubation of BTK with competitor” value is given as “significant decrease in the luminescence detected”. In addition, the “7m turn-on fluorescence after pre-incubation of BTK with competitor” value on BTK [9] is given as “eliminated the fluorescence”.
